Reference: article PMC3874090, “Synthesis and Evaluation of Anti-acetylcholinesterase Activity of 2-(2-(4-(2-Oxo-2-phenylethyl)piperazin-1-yl) ethyl)Isoindoline-1,3-dione Derivatives with Potential Anti-Alzheimer Effects” (Iranian Journal of Basic Medical Sciences, 2013)
Like-named read-outs stand apart in the source and are kept apart here.

Assays:
[1] = biological target: T1, acetylcholinesterase from electric eel (Electrophorus electricus, UniProt O42275); test: biochemical; conditions: Ellman test, electric eel AChE
T1 construct: purchased Sigma-Aldrich (Steinheim, Germany) Type V-S
Method: Lyophilized powder of acetylcholinesterase from electric eel source (AChE, E.C. 3.1.1.7, Type V-S, 1000 unit) was purchased from Sigma-Aldrich (Steinheim, Germany). 5,5'-Dithiobis-(2-nitrobenzoic acid, DTNB), potassium dihydrogen phosphate (KH2PO4), dipotassium hydrogen phosphate (K2HPO4), potassium hydroxide (KOH), sodium hydrogen carbonate (NaHCO3), and acetylthiocholine iodide were purchased from Fluka (Buchs, Switzerland).
According to the literature, the Ellman test was performed for assessment of the anticholinesterase activity of intended compounds in vitro. […] After rapid and immediate mixing the change of absorption was measured at 412 nm. The blank reading contained 3 ml buffer, 200 µl water, 100 µl DTNB and 20 µl substrate. The reaction rates were calculated, and the percent inhibition of test compounds was determined. Each concentration was analyzed in triplicate, and IC50 ± SD values were determined graphically from inhibition curves (log inhibitor concentration vs percent of inhibition) ([21], [22]).

acetylcholinesterase = biological target: acetylcholinesterase; design: method as in Sugimoto and collegues [20]; conditions: in Figure 2; ref Sugimoto and collegues [20]; read-out: IC50 of lead compound; cited from earlier work
[2] = preincubated 15 min at 25 °C, pH 8.0, triplicate, read-out: IC50 (μM ± SD), acetylcholinesterase inhibitory activity

T1 sequence (O42275 24-633): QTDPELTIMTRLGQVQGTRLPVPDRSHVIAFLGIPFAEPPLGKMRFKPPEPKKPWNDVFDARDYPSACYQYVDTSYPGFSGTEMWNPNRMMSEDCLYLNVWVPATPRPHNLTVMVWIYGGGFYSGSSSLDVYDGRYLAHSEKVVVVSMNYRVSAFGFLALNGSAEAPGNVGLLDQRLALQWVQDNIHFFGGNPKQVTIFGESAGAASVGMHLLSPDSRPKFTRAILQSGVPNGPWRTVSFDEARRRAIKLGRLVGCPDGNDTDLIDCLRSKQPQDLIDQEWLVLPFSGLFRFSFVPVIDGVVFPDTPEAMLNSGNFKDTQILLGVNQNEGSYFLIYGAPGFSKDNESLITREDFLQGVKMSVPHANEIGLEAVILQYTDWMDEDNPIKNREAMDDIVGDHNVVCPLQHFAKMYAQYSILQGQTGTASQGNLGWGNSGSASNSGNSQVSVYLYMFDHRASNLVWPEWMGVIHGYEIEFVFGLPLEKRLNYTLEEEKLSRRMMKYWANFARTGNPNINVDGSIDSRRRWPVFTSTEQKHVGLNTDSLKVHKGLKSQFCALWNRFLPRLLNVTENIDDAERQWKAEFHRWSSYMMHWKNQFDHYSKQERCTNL

| SMILES | IC50 [1, 2] [µM] | further results |
| --- | --- | --- |
| O=C(CN1CCN(CCN2C(=O)c3ccccc3C2=O)CC1)c1ccccc1 [Compound 4a, 2-(2-(4-(2-Oxo-2-phenylethyl)piperazin-1-yl)ethyl)isoindoline-1,3-dione] | 45.6 ± 2.78 |  |
| O=C(CN1CCN(CCN2C(=O)c3ccccc3C2=O)CC1)c1ccc(F)cc1 [Compound 4b, 2-(2-(4-(2-(4-Fluorophenyl)-2-oxoethyl)piperazin-1-yl)ethyl)isoindoline-1,3-dione] |  | IC50 ([1]; read-out: IC50, acetylcholinesterase inhibition): 16.4 ± 1.07 µM |
| O=C(CN1CCN(CCN2C(=O)c3ccccc3C2=O)CC1)c1cccc(Cl)c1 [Compound 4c, 2-(2-(4-(2-(3-Chlorophenyl)-2-oxoethyl)piperazin-1-yl)ethyl)isoindoline-1,3-dione] | 28.2 ± 2.3 |  |
| O=C(CN1CCN(CCN2C(=O)c3ccccc3C2=O)CC1)c1ccc(Cl)cc1Cl [Compound 4d, 2-(2-(4-(2-(2,4-Dichlorophenyl)-2-oxoethyl)piperazin-1-yl)ethyl)isoindoline-1,3-dione] | 63 ± 4.06 |  |
| O=C(CN1CCN(CCN2C(=O)c3ccccc3C2=O)CC1)c1ccc2ccccc2c1 [Compound 4e, 2-(2-(4-(2-(Naphthalen-2-yl)-2-oxoethyl)piperazin-1-yl)ethyl)isoindoline-1,3-dione] | 40.5 ± 2.47 |  |
| O=C1c2ccccc2C(=O)N1CCC1CCN(Cc2ccccc2)CC1 [Compound A] |  | IC50 (acetylcholinesterase): 0.03 µM |
